Data from patent US8153818B2, “Triazolyl phenyl benzenesulfonamides” (ChemoCentryx, Inc., priority 2006, dated 2012).

Target: T1, CCR9 (Homo sapiens, UniProt P51686)
T1 construct: chemokine expressing cells (such as THP-1 cells for CCR2 assay or MOLT-4 cells for CCR9 assay); host or cells: MOLT-4
T1 sequence (P51686 1-369): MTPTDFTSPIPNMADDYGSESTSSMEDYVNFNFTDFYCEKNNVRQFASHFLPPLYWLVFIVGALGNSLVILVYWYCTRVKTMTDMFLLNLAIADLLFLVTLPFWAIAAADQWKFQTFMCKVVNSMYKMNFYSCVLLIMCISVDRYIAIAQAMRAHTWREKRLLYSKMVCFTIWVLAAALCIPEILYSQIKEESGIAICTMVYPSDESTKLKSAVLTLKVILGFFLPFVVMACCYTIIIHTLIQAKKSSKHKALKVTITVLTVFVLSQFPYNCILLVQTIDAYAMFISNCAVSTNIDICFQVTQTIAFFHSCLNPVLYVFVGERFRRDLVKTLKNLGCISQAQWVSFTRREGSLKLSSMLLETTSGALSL
Assay: CCR9 activity in one of the chemotaxis, binding or calcium mobilization assays
Assay type: cell-based
Conditions: assay not specified per compound
Method in brief: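 Chemotaxis: THP-1 cells (CCR2, 0.1 nM MCP-1, 90 min) or MOLT-4 cells (CCR9, 50 nM TECK, 150 min) preincubated with compound 15 min RT, migration at 37 °C through 5-μm membrane, CyQUANT read; IC50 by nonlinear regression. Calcium flux: Fluo-4-loaded cells, 0.1 nM MCP-1 or 25 nM TECK. Binding: THP-1, ~50 pM [125I]MCP-1, 3 h, 4 °C.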

Row | Structure (SMILES) | IC50 [nM]
1 | COCc1nnc(-c2cc(Cl)ccc2NS(=O)(=O)c2ccc(C(C)(C)C)cc2)n1C(C)C [Compound 96, 4-tert-butyl-N-(4-chloro-2-(4-isopropyl-5-(methoxymethyl)-4H-1,2,4-triazol-3-yl)phenyl)benzenesulfonamide] | < 1000
2 | Cn1c(-c2ccccn2)nnc1-c1cc(Cl)ccc1NS(=O)(=O)c1ccc(C(C)(C)C)cc1 [Compound 97, 4-tert-butyl-N-(4-chloro-2-(4-methyl-5-(pyridin-2-yl)-4H-1,2,4-triazol-3-yl)phenyl)benzenesulfonamide] | < 1000
3 | CC(C)n1c(CN(C)C)nnc1-c1cc(Cl)ccc1NS(=O)(=O)c1ccc(C(C)(C)C)cc1 [Compound 98, 4-tert-butyl-N-(4-chloro-2-(5-((dimethylamino)methyl)-4-isopropyl-4H-1,2,4-triazol-3-yl)phenyl)benzenesulfonamide] | < 1000
4 | Cc1nnc(-c2cc(Cl)ccc2NS(=O)(=O)c2ccc(C(C)(C)C)cc2)n1C1CCNC1 (centres unmarked) [Compound 99] | < 1000
5 | Cc1nnc(-c2cc(F)c(F)cc2NS(=O)(=O)c2ccc(C(C)(C)C)cc2)n1C [Compound 100, 4-tert-butyl-N-(2-(4,5-dimethyl-4H-1,2,4-triazol-3-yl)-4,5-difluorophenyl)benzenesulfonamide] | < 1000
6 | Cc1nnc(-c2cc(Cl)ccc2NS(=O)(=O)c2ccc(C(C)(C)C)cc2)n1C1CCOC1 (centres unmarked) [Compound 101] | < 1000
7 | Cn1c(-c2cc(Cl)ccc2NS(=O)(=O)c2ccc(C(C)(C)C)cc2)nnc1C1CCCO1 (centres unmarked) [Compound 102] | < 1000
8 | CC(C)OCc1nnc(-c2cc(Cl)ccc2NS(=O)(=O)c2ccc(C(C)(C)C)cc2)n1C [Compound 103, 4-tert-butyl-N-(4-chloro-2-(5-(isopropoxymethyl)-4-methyl-4H-1,2,4-triazol-3-yl)phenyl)benzenesulfonamide] | < 1000
9 | CC(C)(C)c1ccc(S(=O)(=O)Nc2ccc(Cl)cc2-c2nncn2[C@H]2CCCOC2)cc1 [Compound 104] | < 1000
10 | CCc1nnc(-c2cc(Cl)ccc2NS(=O)(=O)c2ccc(C(C)(C)C)cc2)n1C [Compound 105, 4-tert-butyl-N-(4-chloro-2-(5-ethyl-4-methyl-4H-1,2,4-triazol-3-yl)phenyl)benzenesulfonamide] | < 1000
11 | Cc1nnc(-c2cc(Cl)c(F)cc2NS(=O)(=O)c2ccc(C(C)(C)C)cc2)n1[C@H]1CCNC1 [Compound 106] | < 1000
12 | COCc1nnc(-c2cc(Cl)c(F)cc2NS(=O)(=O)c2ccc(C(C)(C)C)cc2)n1C [Compound 107, 4-tert-butyl-N-(4-chloro-5-fluoro-2-(5-(methoxymethyl)-4-methyl-4H-1,2,4-triazol-3-yl)phenyl)benzenesulfonamide] | < 1000
13 | CC(C)(C)c1ccc(S(=O)(=O)Nc2cc(F)c(Cl)cc2-c2nncn2C2CCCOC2)cc1 (centres unmarked) [Compound 108] | < 1000
14 | CC(C)(C)c1ccc(S(=O)(=O)Nc2cc(F)c(Cl)cc2-c2nncn2[C@H]2CCNC2)cc1 [Compound 109] | < 1000
15 | CCc1nnc(-c2cc(Cl)c(F)cc2NS(=O)(=O)c2ccc(C(C)(C)C)cc2)n1C [Compound 110, 4-tert-butyl-N-(4-chloro-2-(5-ethyl-4-methyl-4H-1,2,4-triazol-3-yl)-5-fluorophenyl)benzenesulfonamide] | < 1000
16 | Cn1c(-c2cocn2)nnc1-c1cc(Cl)c(F)cc1NS(=O)(=O)c1ccc(C(C)(C)C)cc1 [Compound 111] | < 1000
17 | CC(C)(C)c1ccc(S(=O)(=O)Nc2cc(F)c(Cl)cc2-c2nncn2[C@H]2CCCNC2)cc1 [Compound 112] | < 1000
18 | CC(C)(C)c1ccc(S(=O)(=O)Nc2ccc(Cl)cc2-c2nncn2[C@H]2CCCNC2)cc1 [Compound 113] | < 1000
19 | Cc1nnc(-c2cc(Cl)ccc2NS(=O)(=O)c2ccc(C(C)(C)C)cc2)n1[C@H]1CCCNC1 [Compound 114] | < 1000

The remaining lines, values ahead:

Row | IC50 [nM] | Structure (SMILES)
20 | < 1000 | Cn1c(-c2cc(Cl)c(F)cc2NS(=O)(=O)c2ccc(C(C)(C)C)cc2)nnc1C1CCOC1 (centres unmarked) [Compound 115]
21 | < 1000 | Cn1c(-c2cc(Cl)c(F)cc2NS(=O)(=O)c2ccc(C(C)(C)C)cc2)nnc1C1CCOCC1 [Compound 116]
22 | < 1000 | Cc1ocnc1-c1nnc(-c2cc(Cl)ccc2NS(=O)(=O)c2ccc(C(C)(C)C)cc2)n1C [Compound 117]
23 | < 1000 | CC(C)c1nnc(-c2cc(Cl)ccc2NS(=O)(=O)c2ccc(C(C)(C)C)cc2)n1[C@H]1CCNC1 [Compound 118, (S)-4-tert-butyl-N-(4-chloro-2-(5-isopropyl-4-(pyrrolidin-3-yl)-4H-1,2,4-triazol-3-yl)phenyl)benzenesulfonamide]
24 | < 1000 | CCc1nnc(-c2cc(Cl)ccc2NS(=O)(=O)c2ccc(C(C)(C)C)cc2)n1[C@H]1CCNC1 [Compound 119, (S)-4-tert-butyl-N-(4-chloro-2-(5-ethyl-4-(pyrrolidin-3-yl)-4H-1,2,4-triazol-3-yl)phenyl)benzenesulfonamide]
25 | < 1000 | CC(C)(C)c1ccc(S(=O)(=O)Nc2cc(F)c(Cl)cc2-c2nncn2C2CCOC2)cc1 (centres unmarked) [Compound 120]
26 | < 1000 | Cn1c(CN2CCCC2)nnc1-c1cc(Cl)c(F)cc1NS(=O)(=O)c1ccc(C(C)(C)C)cc1 [Compound 121]
27 | < 1000 | Cn1c(CN2CCC2)nnc1-c1cc(Cl)c(F)cc1NS(=O)(=O)c1ccc(C(C)(C)C)cc1 [Compound 122]
28 | < 1000 | Cn1c(CO)nnc1-c1cc(Cl)c(F)cc1NS(=O)(=O)c1ccc(C(C)(C)C)cc1 [Compound 123, 4-tert-butyl-N-(4-chloro-5-fluoro-2-(5-(hydroxymethyl)-4-methyl-4H-1,2,4-triazol-3-yl)phenyl)benzenesulfonamide]
29 | < 1000 | CC(=O)N1CCC(n2c(C)nnc2-c2cc(Cl)ccc2NS(=O)(=O)c2ccc(C(C)(C)C)cc2)C1 (centres unmarked) [Compound 124]
30 | < 1000 | Cc1nnc(-c2cc(Cl)ccc2NS(=O)(=O)c2ccc(C(C)(C)C)cc2)n1CCN(C)C [Compound 125, 4-tert-butyl-N-(4-chloro-2-(4-(2-(dimethylamino)ethyl)-5-methyl-4H-1,2,4-triazol-3-yl)phenyl)benzenesulfonamide]
31 | < 1000 | CNCCn1c(C)nnc1-c1cc(Cl)ccc1NS(=O)(=O)c1ccc(C(C)(C)C)cc1 [Compound 126, 4-tert-butyl-N-(4-chloro-2-(5-methyl-4-(2-(methylamino)ethyl)-4H-1,2,4-triazol-3-yl)phenyl)benzenesulfonamide]
32 | < 1000 | Cc1nnc(-c2cc(Cl)ccc2NS(=O)(=O)c2ccc(C(C)(C)C)cc2)n1[C@H]1CCNC1 [Compound 127]
33 | < 1000 | CCc1nnc(-c2cc(C#N)ccc2NS(=O)(=O)c2ccc(C(C)(C)C)cc2)n1C [Compound 128, 4-tert-butyl-N-(4-cyano-2-(5-ethyl-4-methyl-4H-1,2,4-triazol-3-yl)phenyl)benzenesulfonamide]
34 | < 1000 | CCc1nnc(-c2cc(C(N)=O)ccc2NS(=O)(=O)c2ccc(C(C)(C)C)cc2)n1C [Compound 129, 4-(4-tert-butylphenylsulfonamido)-3-(5-ethyl-4-methyl-4H-1,2,4-triazol-3-yl)benzamide]
35 | < 1000 | CCc1nnc(-c2cc(C(=O)O)ccc2NS(=O)(=O)c2ccc(C(C)(C)C)cc2)n1C [Compound 130, 4-(4-tert-butylphenylsulfonamido)-3-(5-ethyl-4-methyl-4H-1,2,4-triazol-3-yl)benzoic acid]
